36 molecules from ChEMBL document CHEMBL2163249, “Exploration of natural compounds as sources of new bifunctional scaffolds targeting cholinesterases and beta amyloid aggregation: the case of chelerythrine” (Bioorg Med Chem, 2012) can be followed below.

In experiment [1] the target is Acetylcholinesterase (Electrophorus electricus) (UniProt O42275). To be noted: at 2 mg/mL.
Description: Inhibition of electric eel AChE at 2 mg/ml by Ellman's method
For experiment [2], the target named is Cholinesterase (Equus caballus) (UniProt P81908). To be noted: at 2 mg/mL.
Description: Inhibition of horse BChE at 2 mg/ml by Ellman's method

As usually defined, the inhibition is the relative decrease from the control value, in per cent.

Chain of Cholinesterase (Equus caballus) (P81908 whole entry): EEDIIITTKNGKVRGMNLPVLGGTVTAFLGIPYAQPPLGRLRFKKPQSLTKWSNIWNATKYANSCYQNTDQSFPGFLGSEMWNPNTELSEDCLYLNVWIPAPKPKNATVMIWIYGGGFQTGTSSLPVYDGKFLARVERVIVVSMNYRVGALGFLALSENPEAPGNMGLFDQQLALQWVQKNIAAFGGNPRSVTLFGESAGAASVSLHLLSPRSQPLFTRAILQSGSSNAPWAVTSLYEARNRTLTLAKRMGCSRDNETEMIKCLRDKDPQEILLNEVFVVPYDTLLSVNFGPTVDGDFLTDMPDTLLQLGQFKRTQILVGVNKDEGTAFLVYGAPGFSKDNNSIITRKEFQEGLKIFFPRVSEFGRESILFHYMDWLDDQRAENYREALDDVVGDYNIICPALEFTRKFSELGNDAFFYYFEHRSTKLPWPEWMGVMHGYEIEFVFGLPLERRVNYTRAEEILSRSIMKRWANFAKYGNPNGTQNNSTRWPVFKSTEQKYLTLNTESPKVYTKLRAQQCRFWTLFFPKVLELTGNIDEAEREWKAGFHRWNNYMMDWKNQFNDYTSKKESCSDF

Turning to `C/C=C(/C)C(=O)O[C@H]1CC[C@@]2(C)[C@@H]3CC[C@H]4[C@]5(O)C[C@H](O)[C@@]6(O)[C@@H](CN7C[C@@H](C)CC[C@H]7[C@@]6(C)O)[C@]5(O)C[C@@]42O[C@]13O`, the inhibition in experiment [1] is -3.72%; in experiment [2] it was 6.44%.

`COc1cc2c(cc1OC)[C@H]1[C@@H](C)c3ccc(OC)c(OC)c3CN1CC2`: the inhibition in experiment [1] is 13.9%; in experiment [2], -0.53%.

Consider NEOMYCIN SULFATE, for which the inhibition is -9.42% in experiment [1] and 10.5% in experiment [2].

For `CC1=C2C(=O)[C@H]3[C@@H](CC=C4C[C@@H](O)CC[C@@]43C)[C@@H]2CC[C@]12O[C@@H]1C[C@H](C)CN[C@H]1[C@H]2C`, the inhibition in experiment [1] was -9.1%; in experiment [2], 5.64%.

`COc1cc([C@@H]2CC(=O)c3c(O)cc(O)cc3O2)ccc1O`: the values for the inhibition in experiment [1] and in experiment [2] were 29.5% and 3.1%, respectively.

For `C[C@H]1O[C@@H](O[C@H]2[C@@H](O)C[C@H](O[C@H]3[C@@H](O)C[C@H](O[C@H]4CC[C@@]5(C)[C@H](CC[C@@H]6[C@@H]5CC[C@]5(C)[C@@H](C7=CC(=O)OC7)CC[C@]65O)C4)O[C@@H]3C)O[C@@H]2C)C[C@H](O)[C@@H]1O`, the inhibition in experiment [1] is -1.83%; in experiment [2] it was -0.78%.

On to `COc1cc([C@@H]2c3cc4c(cc3[C@H](O)[C@H]3COC(=O)[C@@H]23)OCO4)cc(OC)c1OC`, for which the inhibition was 27.1% in experiment [1] and -2.7% in experiment [2].

For the molecule `CN(C)c1ccc(O)c2c1C[C@H]1C[C@H]3[C@H](N(C)C)C(O)=C(C(N)=O)C(=O)[C@@]3(O)C(O)=C1C2=O`, the results for the inhibition in experiment [1] and in experiment [2] were -0.24% and -8.62%, respectively.

With `CC[C@]1(O)C[C@@H]2CN(CCc3c([nH]c4ccccc34)[C@@](C(=O)OC)(c3cc4c(cc3OC)N(C)[C@H]3[C@@](O)(C(=O)OC)[C@H](OC(C)=O)[C@]5(CC)C=CCN6CC[C@]43[C@@H]65)C2)C1`, the figures for the inhibition in experiment [1] and in experiment [2] were 15.4% and 0.36%, respectively.

Consider `COc1cc(/C=C/c2ccccc2)oc(=O)c1`, for which the inhibition in experiment [1] was -0.87%; in experiment [2] it was -0.13%.

Take `COc1cc2c(c(OC)c1OC)-c1c(cc3c(c1O)OCO3)C[C@H](C)[C@](C)(O)[C@H]2OC(=O)c1ccccc1`: the values for the inhibition in experiment [1] and in experiment [2] were 5.31% and -0.32%, respectively.

For `CCCCCCCCCCCCCC(=O)O[C@@H]1[C@@H](C)[C@@]2(O)[C@@H](C=C(CO)C[C@]3(O)C(=O)C(C)=C[C@@H]23)[C@@H]2C(C)(C)[C@]12OC(C)=O`, the inhibition was 19.6% in experiment [1] and -6.35% in experiment [2].

As to `CC(=O)c1c(O)c(C)c(O)c(Cc2c(O)c3c(c(C(=O)/C=C/c4ccccc4)c2O)OC(C)(C)C=C3)c1O`, the inhibition in experiment [1] came out at 15.8%; in experiment [2], 4.24%.

On to `C[C@@H]1O[C@@H](O[C@H]2[C@H](Oc3cc(O)c4c(=O)cc(-c5ccc(O)cc5)oc4c3)O[C@H](CO)[C@@H](O)[C@@H]2O)[C@H](O)[C@H](O)[C@H]1O`, for which the results for the inhibition in experiment [1] and in experiment [2] were 27.2% and -2.37%, respectively.

Regarding `CC(C)C[C@H](NC(=O)[C@H]1O[C@@H]1C(=O)O)C(=O)NCCCCN=C(N)N`, the inhibition in experiment [1] is -7.43%; in experiment [2], 12.1%.

Consider `CC(=O)N[C@H]1CN2CC[C@H](O)[C@@H]2[C@@H](O)[C@@H]1O`, for which the results for the inhibition in experiment [1] and in experiment [2] were 2.39% and 9.19%, respectively.

Regarding `C/C=C1/C[C@@H](C)[C@@](C)(O)C(=O)OCC2=CCN3CC[C@@H](OC1=O)[C@@H]23`, the inhibition in experiment [1] came to 7.46%; in experiment [2], 19.2%.

As for `CSC(=S)NCc1c[nH]c2ccccc12`, the inhibition in experiment [1] is -0.26%; in experiment [2] it was -5.64%.

Consider `Cc1nccc2c1[nH]c1ccccc12`, for which the values for the inhibition in experiment [1] and in experiment [2] were 22.2% and 39.4%, respectively.

Turning to `COc1ccc2cc1Oc1ccc(cc1)C[C@@H]1c3cc(c(OC)cc3CCN1C)Oc1c(OC)c(OC)cc3c1[C@H](C2)N(C)CC3`, the results for the inhibition in experiment [1] and in experiment [2] were -1.02% and 21.9%, respectively.

`C/C=C1\C[C@@H](C)[C@](O)(CO)C(=O)OCC2=CCN3CC[C@@H](OC1=O)[C@@H]23`: the results for the inhibition in experiment [1] and in experiment [2] were 4.15% and -3.05%, respectively.

`CO[C@H](C(=O)[C@@H](O)[C@@H](C)O)[C@@H]1Cc2cc3cc(O[C@H]4C[C@@H](O[C@H]5C[C@@H](O)[C@H](O)[C@@H](C)O5)[C@@H](O)[C@@H](C)O4)c(C)c(O)c3c(O)c2C(=O)[C@H]1O[C@H]1C[C@@H](O[C@H]2C[C@@H](O[C@H]3C[C@](C)(O)[C@H](O)[C@@H](C)O3)[C@H](O)[C@@H](C)O2)[C@H](O)[C@@H](O)O1`: the inhibition is -3.51% in experiment [1] and 6.61% in experiment [2].

Turning to `COc1ccc2c3c4n(c2c1)[C@H](C=C(C)C)OOC(C)(C)C[C@@H]4N1C(=O)[C@@H]2CCCN2C(=O)[C@]1(O)[C@H]3O`, the inhibition in experiment [1] is 1.5%; in experiment [2] it was 18%.

For `N[C@H](C(=O)O)[C@@H]1CC(Cl)=NO1`, the values for the inhibition in experiment [1] and in experiment [2] were 2.09% and 8.62%, respectively.

Take `COc1ccc([C@@H]2CC(=O)c3c(O)cc(O)cc3O2)cc1O`: the inhibition in experiment [1] is -4.02%; in experiment [2], -8.75%.

For the molecule `CO[C@@H]1C[C@@H](C[C@H]2CC[C@H](C)[C@H]([C@@H](C)C(=O)O)O2)O[C@]2(O[C@](C)([C@H]3CC[C@@](C)([C@@H]4O[C@@H]([C@H]5O[C@@](O)(CO)[C@H](C)C[C@@H]5C)C[C@@H]4C)O3)C[C@H]2C)[C@@H]1C`, the results for the inhibition in experiment [1] and in experiment [2] were -7.25% and 4.98%, respectively.

Regarding `CN1[C@@H](CC(=O)c2ccccc2)CCC[C@H]1C[C@H](O)c1ccccc1`, the inhibition in experiment [1] is -0.17%; in experiment [2] it was 30.4%.

For `O=C1/C(=C/c2ccc(O)c(O)c2)Oc2c1ccc(O[C@@H]1O[C@H](CO)[C@@H](O)[C@H](O)[C@H]1O)c2O`, the inhibition was determined as 22.4% in experiment [1] and 3.06% in experiment [2].

Take `COc1c2ccoc2cc2oc(=O)ccc12`: the inhibition in experiment [1] was found to be 21.3%; in experiment [2], 10.3%.

`CC[C@@]1(O)C(=O)OCc2c1cc1n(c2=O)Cc2cc3ccccc3nc2-1`: the figures for the inhibition in experiment [1] and in experiment [2] were 14.1% and 3.9%, respectively.

Take `CCCCCCCCCCC[C@@H](C[C@@H]1OC(=O)[C@H]1CCCCCC)OC(=O)[C@H](CC(C)C)NC=O`: the inhibition in experiment [1] was -6.52%; in experiment [2], 7.43%.

In the case of `Cc1c2c(c(O)c3c(O)cccc13)C(=O)O[C@H]2[C@@H]1[C@H](O)C(=O)C(C(N)=O)=C(O)[C@H]1N(C)C`, the inhibition in experiment [1] stood at 16.9%; in experiment [2], 7.3%.

In the case of `CC[C@]12CCCN3CCc4c(n(c5ccccc45)[C@@](O)(C(=O)OC)C1)[C@@H]32`, the inhibition in experiment [1] amounted to 7.29%; in experiment [2], 3.22%.

On to `CO[C@H]1/C=C/O[C@@]2(C)Oc3c(C)c(O)c4c(O)c(c(/C=N/N5CCN(C)CC5)c(O)c4c3C2=O)NC(=O)/C(C)=C\C=C\[C@H](C)[C@H](O)[C@@H](C)[C@@H](O)[C@@H](C)[C@H](OC(C)=O)[C@@H]1C`, for which the inhibition in experiment [1] turned out to be 16.2%; in experiment [2], 1.88%.

With `O=c1cc(-c2ccc(O)cc2)oc2cc(OC3O[C@H](CO)[C@@H](O)[C@H](O)[C@H]3O)cc(O)c12` (some centres not stated), the inhibition turned out to be 24.9% in experiment [1] and 5% in experiment [2].

For the molecule `CC[C@@H](C)[C@@H](O)[C@H](C)C(=O)[C@H](C)/C=C(\C)C[C@H](C)[C@@H]1OC(=O)[C@H]1CC`, the inhibition stood at 2.88% in experiment [1] and 99.8% in experiment [2].
